Test in all cases: NCI-60 cell line screen, 48 h
In experiment [1] the test system is CAKI-1 renal.
For experiment [2], the system named is SW-620 colon.
In experiment [3] the test system is MOLT-4 leukemia.
Experiment [4] concerns CCRF-CEM leukemia.
In experiment [5] the test system is PC-3 prostate.
The test system of experiment [6] is IGROV1 ovarian.
Experiment [7] concerns M14 melanoma.
Experiment [8] deals with OVCAR-4 ovarian.
Experiment [9] relates to TK-10 renal.
In experiment [10] the test system is SR leukemia.

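Briefly, cells in 96-well plates were exposed to five compound concentrations for 48 h, and endpoints were estimated by linear interpolation. GI50 is the concentration that inhibits growth by half. TGI: concentration producing complete growth inhibition.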

Take `NS(=O)(=O)c1ccc(C2C3=C(CCCC3=O)OC3=C2C(=O)c2ccccc2C3=O)cc1` (stereo not given): the GI50 in experiment [1] was 1.74 µM; in experiment [2], 0.417 µM; in experiment [3] it was 0.293 µM; in experiment [4], 0.383 µM; in experiment [5], 0.371 µM; in [6], 0.347 µM. Besides, the GI50 in [7] is 0.455 µM; in experiment [8] it was 0.19 µM; in [9], 1.78 µM; in [10], 0.47 µM. The TGI is 3.2 µM in experiment [1]; 1.33 µM in [2]; 0.848 µM in [3]; 2.09 µM in [4]; 1.33 µM in experiment [5]; 1.2 µM in experiment [6]. In addition, the TGI in [7] turned out to be 1.68 µM; in experiment [8], 0.824 µM; in experiment [9], 3.17 µM; in experiment [10], 3.88 µM.

Take `CCN(CC)CCOc1ccc(Nc2ncc3cc(-c4c(Cl)cccc4Cl)c(=O)n(CCOC)c3n2)cc1`: the GI50 in experiment [1] was 0.0149 µM; in experiment [2], 1.2 µM; in experiment [3], 0.781 µM; in [4], 1.11 µM; in [5] it was 3.49 µM; in experiment [6], 0.0138 µM. Besides, the GI50 in experiment [7] was 0.233 µM; in experiment [8], 0.946 µM; in experiment [9] it was 0.0785 µM; in experiment [10], 0.459 µM. In addition, the TGI in [1] came out at 0.174 µM; in [2], 5.86 µM; in [3], 5.41 µM; in experiment [4] it was 18.1 µM; in experiment [5], 18.6 µM; in experiment [6] it was 0.0983 µM. For the same compound, the TGI in experiment [7] stood at 1.5 µM; in experiment [8] it was 6.99 µM; in [9], 0.832 µM; in experiment [10], 2.15 µM.

With `O=C1c2ccccc2-c2nccc3cc(Cl)nc1c23`, the GI50 in experiment [1] is greater than 100 µM; in experiment [2], 1.15 µM; in [3], 2.21 µM; in experiment [4], 1.06 µM; in experiment [5], 2.96 µM; in [6], 0.586 µM. Besides, the GI50 in experiment [8] is 1.64 µM; in experiment [9], 4.33 µM; in experiment [10], 1.34 µM. In addition, the TGI in experiment [1] is greater than 100 µM; in experiment [2] it was 2.37 µM; in experiment [3] it was greater than 26.8 µM; in [5], greater than 100 µM; in [6] it was 1.91 µM; in [8] it was 3 µM. The TGI in [9] was greater than 100 µM; in experiment [10], 4.18 µM.

Regarding `O=[N+]([O-])c1cc(O)c(O)cc1-c1cn2ccsc2n1`, the GI50 is 38.4 µM in [1]; 45.6 µM in experiment [2]; 75.9 µM in [3]; 63.4 µM in experiment [5]; 32.4 µM in experiment [6]; 20 µM in experiment [7]. Besides, the GI50 is 69.7 µM in experiment [8], 66.5 µM in [9] and 41.3 µM in experiment [10]. For the same compound, the TGI in experiment [1] was greater than 100 µM; in experiment [2], greater than 100 µM; in experiment [3], greater than 100 µM; in experiment [5], greater than 100 µM; in experiment [6] it was greater than 100 µM; in experiment [7], 57.7 µM. In addition, the TGI in experiment [8], in [9] and in experiment [10] was greater than 100 µM in each case.

Consider `Nc1ccc(N=Nc2ccccc2)c(N)n1`, for which the GI50 was 28.6 µM in experiment [2]; 35.4 µM in experiment [3]; 29.4 µM in [4]; 21.7 µM in [5]; 23.7 µM in [6]; 29.4 µM in experiment [7]. The GI50 in experiment [9] was 41.2 µM; in experiment [10], 18.1 µM. Moreover, the TGI in experiment [2] was greater than 100 µM; in experiment [3] it was greater than 100 µM; in [4], greater than 100 µM; in experiment [5], greater than 100 µM; in [6] it was 77.5 µM; in experiment [7], 74.9 µM. For the same compound, the TGI in experiment [9] and in experiment [10] was greater than 100 µM in each case.

With `CCN(CC)c1ccc(N=C2C=C(C(=O)Nc3ccc(S(C)(=O)=O)cc3)C(=O)c3ccccc32)c(C)c1`, the GI50 is 81 µM in experiment [1]; greater than 100 µM in [2]; greater than 100 µM in experiment [3]; greater than 100 µM in [4]; 1.05 µM in [5]; 88.5 µM in [7]. In addition, the GI50 in experiment [8] is 8.91 µM; in experiment [9], greater than 100 µM; in experiment [10] it was 2.08 µM. Further, the TGI in [1], in experiment [2], in [3], in experiment [4], in experiment [5] and in experiment [7] was greater than 100 µM each time. Also, the TGI in experiment [8], in experiment [9] and in experiment [10] was greater than 100 µM in each case.

As for `CN(C)/C=C/c1nnnn1-c1ccc(Cl)cc1`, the GI50 was 10.7 µM in experiment [2]; 3.51 µM in [3]; 4.65 µM in [4]; 6.76 µM in [5]; 14 µM in experiment [6]; 5.21 µM in experiment [7]. Also, the values for the GI50 in experiment [8], in experiment [9] and in experiment [10] were 28.2 µM, 25.4 µM and 3.35 µM, respectively. In addition, the TGI was 49.8 µM in experiment [2]; greater than 100 µM in [3]; 42.4 µM in [4]; 35.5 µM in experiment [5]; greater than 100 µM in experiment [6]; 44.1 µM in experiment [7]. The TGI stood at 80.4 µM in experiment [8], 80.4 µM in [9] and 29.6 µM in experiment [10].

With `COc1ccc(Nc2ncccc2/C=C/C(=O)c2cc(OC)c(OC)c(OC)c2)cc1`, the GI50 in experiment [1] was 1.52 µM; in experiment [2], 1.2 µM; in [3], 2.09 µM; in experiment [4] it was 0.5 µM; in [5] it was 2.82 µM; in [6], 2 µM. Also, the figures for the GI50 in experiment [7], in experiment [8] and in experiment [10] were 1.65 µM, 1.62 µM and 0.464 µM, respectively. Moreover, the TGI in experiment [1] was 3.88 µM; in experiment [2] it was 2.43 µM; in [3] it was 5.45 µM; in experiment [4], greater than 100 µM; in [5], 8.71 µM; in experiment [6] it was 5.31 µM. Further, the TGI in experiment [7] was 3.16 µM; in experiment [8], 3.47 µM; in experiment [10], 3.98 µM.

Source of the values: PubChem BioAssay (NCI).
